We go through 8 compounds from PubChem BioAssay (NCI).

Test systems include MOLT-4 leukemia; HT29 colon; SNB-75 CNS; HL-60(TB) leukemia; OVCAR-4 ovarian; NCI-H226 lung; TK-10 renal; 786-0 renal; OVCAR-8 ovarian; OVCAR-5 ovarian.
Test in all cases: NCI anticancer screen, dose series, 48 h

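Five compound concentrations were applied to cells in 96-well plates for 48 hours; endpoints were derived by simple linear interpolation of the resulting dose-response curve. At the GI50, growth is halved. TGI: concentration producing complete growth inhibition.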

Take `c1ccc2c(c1)N=C(c1cccc3ccccc13)CC(c1cccc3ccccc13)S2` (configuration not stated): the TGI in the assay with MOLT-4 leukemia is 5.15 µM; in the assay on HT29 colon, 10.1 µM; in the assay with SNB-75 CNS it was 19.1 µM; in the assay with HL-60(TB) leukemia it was 3.56 µM; with OVCAR-4 ovarian, 12.4 µM; in the assay on NCI-H226 lung, 24.6 µM. Also, the TGI was determined as 25.8 µM with TK-10 renal, 13.5 µM in the assay on 786-0 renal, 16.6 µM with OVCAR-8 ovarian and 16.8 µM in the assay with OVCAR-5 ovarian.

Regarding `Oc1ccc(Cc2ccccc2)c2cccnc12`, the GI50 with MOLT-4 leukemia was 1.41 µM; with HT29 colon, 22.5 µM; in the assay with SNB-75 CNS it was 14.7 µM; in the assay with HL-60(TB) leukemia, 1.56 µM; with OVCAR-4 ovarian, 6.35 µM; in the assay with NCI-H226 lung it was 13.8 µM. Besides, the GI50 in the assay with TK-10 renal is 2.81 µM; in the assay on 786-0 renal it was 2.04 µM; in the assay on OVCAR-8 ovarian, 2.35 µM; in the assay with OVCAR-5 ovarian, 4.73 µM. The TGI in the assay with MOLT-4 leukemia is 93.8 µM; in the assay with HT29 colon, more than 100 µM; in the assay with SNB-75 CNS, more than 100 µM; in the assay on HL-60(TB) leukemia, 6.65 µM; in the assay with OVCAR-4 ovarian, more than 100 µM; with NCI-H226 lung, 67.5 µM. The TGI with TK-10 renal was more than 100 µM; with 786-0 renal, 6.57 µM; in the assay on OVCAR-8 ovarian, more than 100 µM; in the assay with OVCAR-5 ovarian, more than 100 µM.

In the case of `CC(=O)c1c(C)n([O-])c2cc(C)c(C)cc2[n+]1=O`, the TGI with MOLT-4 leukemia, with HT29 colon, in the assay with SNB-75 CNS, in the assay on HL-60(TB) leukemia, with OVCAR-4 ovarian and in the assay with NCI-H226 lung was more than 100 µM in each case. Moreover, the TGI with TK-10 renal, in the assay with 786-0 renal, in the assay on OVCAR-8 ovarian and in the assay with OVCAR-5 ovarian was more than 100 µM in each case.

Turning to `N#Cc1c(-c2ccccc2)nc2c(c(-c3ccccc3)nn2-c2ccccc2)c1-c1ccc(O)cc1`, the GI50 is 2.48 µM with MOLT-4 leukemia; 2.51 µM in the assay on HT29 colon; 2.03 µM with SNB-75 CNS; 3.52 µM in the assay on HL-60(TB) leukemia; 1.95 µM with OVCAR-4 ovarian; 1.97 µM in the assay on NCI-H226 lung. The GI50 in the assay with TK-10 renal was 2.89 µM; in the assay with 786-0 renal it was 2.16 µM; with OVCAR-8 ovarian, 3.14 µM; in the assay on OVCAR-5 ovarian, 1.75 µM. Further, the TGI was 7.86 µM in the assay on MOLT-4 leukemia; 6.44 µM with HT29 colon; 7.28 µM in the assay on SNB-75 CNS; 23.7 µM in the assay on HL-60(TB) leukemia; 4.66 µM in the assay on OVCAR-4 ovarian; 4.51 µM in the assay on NCI-H226 lung. The TGI was found to be 8.19 µM in the assay with TK-10 renal, 5.35 µM in the assay with 786-0 renal, 11.7 µM with OVCAR-8 ovarian and 3.41 µM with OVCAR-5 ovarian.

As to `Cc1c(C(=O)NN)nnn1-c1ccnc2c(C(F)(F)F)cccc12`, the GI50 in the assay with MOLT-4 leukemia was more than 100 µM; in the assay on SNB-75 CNS, 37.9 µM; in the assay on HL-60(TB) leukemia, more than 100 µM; with OVCAR-4 ovarian, 12 µM; in the assay with NCI-H226 lung it was more than 100 µM; in the assay on TK-10 renal, more than 100 µM. Further, the GI50 with 786-0 renal, in the assay on OVCAR-8 ovarian and with OVCAR-5 ovarian was more than 100 µM throughout. For the same compound, the TGI with MOLT-4 leukemia is more than 100 µM; with SNB-75 CNS it was more than 100 µM; with HL-60(TB) leukemia, more than 100 µM; in the assay with OVCAR-4 ovarian it was 89.4 µM; in the assay on NCI-H226 lung, more than 100 µM; in the assay with TK-10 renal, more than 100 µM. The TGI in the assay on 786-0 renal, with OVCAR-8 ovarian and in the assay with OVCAR-5 ovarian was more than 100 µM throughout.

As for `Cc1sc(C)c(-c2ccc(CO)o2)c1-c1ccc(CO)o1`, the GI50 in the assay with MOLT-4 leukemia was 48.9 µM; in the assay on HT29 colon, 0.498 µM; in the assay on SNB-75 CNS, 25.4 µM; in the assay on HL-60(TB) leukemia, 52.5 µM; in the assay with OVCAR-4 ovarian, 0.299 µM; in the assay on NCI-H226 lung, 0.124 µM. The figures for the GI50 in the assay with TK-10 renal and in the assay on OVCAR-8 ovarian were 0.116 µM and 75.4 µM, respectively. For the same compound, the TGI with MOLT-4 leukemia is more than 100 µM; in the assay with HT29 colon, more than 100 µM; in the assay with SNB-75 CNS it was more than 100 µM; in the assay on HL-60(TB) leukemia, more than 100 µM; in the assay with OVCAR-4 ovarian, more than 100 µM; in the assay with NCI-H226 lung, 0.388 µM. Moreover, the values for the TGI in the assay on TK-10 renal, in the assay on 786-0 renal and in the assay with OVCAR-8 ovarian were 0.426 µM, more than 100 µM and more than 100 µM, respectively.

As to `COc1cc(/C=C2\CC3C4CC=C5CC(N6CCCC6)CC[C@]5(C)C4CC[C@]3(C)C2OC(C)=O)ccc1OCCN1CCCC1` (some centres not stated), the GI50 was 2.18 µM in the assay on MOLT-4 leukemia; 1.82 µM with HT29 colon; 2.51 µM with SNB-75 CNS; 2.05 µM with HL-60(TB) leukemia; 2.41 µM in the assay on OVCAR-4 ovarian; 3.19 µM with NCI-H226 lung. The GI50 with TK-10 renal is 14.9 µM; in the assay with 786-0 renal, 1.73 µM; in the assay on OVCAR-5 ovarian, 3.01 µM. Further, the TGI was 4.48 µM with MOLT-4 leukemia; 4.39 µM in the assay with HT29 colon; 5.09 µM in the assay on SNB-75 CNS; 4.36 µM in the assay on HL-60(TB) leukemia; 5.74 µM in the assay with OVCAR-4 ovarian; 10.1 µM in the assay with NCI-H226 lung. Further, the TGI is 29.2 µM with TK-10 renal, 3.16 µM in the assay with 786-0 renal and 7.09 µM in the assay on OVCAR-5 ovarian.

`CCCS(=O)(=O)c1nc(NC2CC2)cc(-c2ccc3c(ccn3C3CC(C)(C)NC(C)(C)C3)c2)n1`: the GI50 in the assay on MOLT-4 leukemia is 2.02 µM; in the assay on HT29 colon it was 1.81 µM; in the assay with SNB-75 CNS, 1.45 µM; in the assay with HL-60(TB) leukemia, 1.75 µM; with NCI-H226 lung, 1.74 µM; in the assay on TK-10 renal, 1.52 µM. Besides, the GI50 with 786-0 renal was 1.21 µM. The TGI is 4.57 µM with MOLT-4 leukemia; 3.38 µM in the assay with HT29 colon; 2.86 µM in the assay on SNB-75 CNS; 3.73 µM in the assay on HL-60(TB) leukemia; 3.71 µM with NCI-H226 lung; 2.98 µM with TK-10 renal. The same compound returned a TGI in the assay on 786-0 renal of 2.64 µM.
